The target of assay [1] is T1, neurotensin receptor 1 (NTR1) (Homo sapiens, UniProt P30989). The experiment in a line: […]-NT radioligand competitive displacement in NTR1-U2OS membranes. In kind it is binding.
The target of assay [2] is T1, neurotensin receptor 1 (NTR1). The experiment in a line: […]-NT radioligand binding to NTR1-U2OS membranes.

This note sets out measurements from PMC4947017 (ACS chemical biology, 2016).

Molecules are shown by their SMILES.

T1 sequence (P30989 whole entry): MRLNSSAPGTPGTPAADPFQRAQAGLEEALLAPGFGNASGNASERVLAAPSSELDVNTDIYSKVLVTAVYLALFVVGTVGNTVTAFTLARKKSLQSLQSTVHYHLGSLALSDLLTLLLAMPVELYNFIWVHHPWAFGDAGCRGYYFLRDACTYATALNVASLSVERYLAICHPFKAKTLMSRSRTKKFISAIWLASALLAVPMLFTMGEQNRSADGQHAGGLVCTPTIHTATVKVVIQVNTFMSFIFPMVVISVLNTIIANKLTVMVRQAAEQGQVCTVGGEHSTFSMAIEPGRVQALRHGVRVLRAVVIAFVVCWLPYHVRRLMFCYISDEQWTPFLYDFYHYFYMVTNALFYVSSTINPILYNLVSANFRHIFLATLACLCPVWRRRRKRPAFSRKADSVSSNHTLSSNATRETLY

In the case of `COc1cccc(OC)c1-c1nc(C(=O)N[C@@H](CC(C)C)C(=O)O)cn1-c1ccnc2cc(Cl)ccc12` [ML301], the IC50 in assay [1] is reported as -4.0 Log(IC50). Turning to `COc1cc2nc(C3CC3)nc(N3CCN(c4ccccc4OC)CC3)c2cc1OC` [ML314], the EC50 in assay [2] was 316 nM.

The EC50 is the midpoint of the concentration-response curve. High values mean a less potent agent, low ones a more potent agent.
